What is called IC50 is the concentration at which inhibition is half-maximal.

Data on 22 molecules can be found in patent US9776995B2, “Bicyclic sulfonamide compounds as sodium channel inhibitors” (AMGEN INC., priority 2013, dated 2017).

For one data set, the target named is Nav 1.7 (Homo sapiens (Human), UniProt Q15858). The data set is described as follows: in-vitro Nav 1.7 PX data. The class given is cell-based.
The target in the next data set is Nav 1.5 (Homo sapiens (Human), UniProt Q14524). Nature of the data set: in-vitro Nav 1.5 PX data. The conditions noted are these: read-out: Nav 1.5 PX IC50.
Sequence of Nav 1.5 (Q14524 whole entry): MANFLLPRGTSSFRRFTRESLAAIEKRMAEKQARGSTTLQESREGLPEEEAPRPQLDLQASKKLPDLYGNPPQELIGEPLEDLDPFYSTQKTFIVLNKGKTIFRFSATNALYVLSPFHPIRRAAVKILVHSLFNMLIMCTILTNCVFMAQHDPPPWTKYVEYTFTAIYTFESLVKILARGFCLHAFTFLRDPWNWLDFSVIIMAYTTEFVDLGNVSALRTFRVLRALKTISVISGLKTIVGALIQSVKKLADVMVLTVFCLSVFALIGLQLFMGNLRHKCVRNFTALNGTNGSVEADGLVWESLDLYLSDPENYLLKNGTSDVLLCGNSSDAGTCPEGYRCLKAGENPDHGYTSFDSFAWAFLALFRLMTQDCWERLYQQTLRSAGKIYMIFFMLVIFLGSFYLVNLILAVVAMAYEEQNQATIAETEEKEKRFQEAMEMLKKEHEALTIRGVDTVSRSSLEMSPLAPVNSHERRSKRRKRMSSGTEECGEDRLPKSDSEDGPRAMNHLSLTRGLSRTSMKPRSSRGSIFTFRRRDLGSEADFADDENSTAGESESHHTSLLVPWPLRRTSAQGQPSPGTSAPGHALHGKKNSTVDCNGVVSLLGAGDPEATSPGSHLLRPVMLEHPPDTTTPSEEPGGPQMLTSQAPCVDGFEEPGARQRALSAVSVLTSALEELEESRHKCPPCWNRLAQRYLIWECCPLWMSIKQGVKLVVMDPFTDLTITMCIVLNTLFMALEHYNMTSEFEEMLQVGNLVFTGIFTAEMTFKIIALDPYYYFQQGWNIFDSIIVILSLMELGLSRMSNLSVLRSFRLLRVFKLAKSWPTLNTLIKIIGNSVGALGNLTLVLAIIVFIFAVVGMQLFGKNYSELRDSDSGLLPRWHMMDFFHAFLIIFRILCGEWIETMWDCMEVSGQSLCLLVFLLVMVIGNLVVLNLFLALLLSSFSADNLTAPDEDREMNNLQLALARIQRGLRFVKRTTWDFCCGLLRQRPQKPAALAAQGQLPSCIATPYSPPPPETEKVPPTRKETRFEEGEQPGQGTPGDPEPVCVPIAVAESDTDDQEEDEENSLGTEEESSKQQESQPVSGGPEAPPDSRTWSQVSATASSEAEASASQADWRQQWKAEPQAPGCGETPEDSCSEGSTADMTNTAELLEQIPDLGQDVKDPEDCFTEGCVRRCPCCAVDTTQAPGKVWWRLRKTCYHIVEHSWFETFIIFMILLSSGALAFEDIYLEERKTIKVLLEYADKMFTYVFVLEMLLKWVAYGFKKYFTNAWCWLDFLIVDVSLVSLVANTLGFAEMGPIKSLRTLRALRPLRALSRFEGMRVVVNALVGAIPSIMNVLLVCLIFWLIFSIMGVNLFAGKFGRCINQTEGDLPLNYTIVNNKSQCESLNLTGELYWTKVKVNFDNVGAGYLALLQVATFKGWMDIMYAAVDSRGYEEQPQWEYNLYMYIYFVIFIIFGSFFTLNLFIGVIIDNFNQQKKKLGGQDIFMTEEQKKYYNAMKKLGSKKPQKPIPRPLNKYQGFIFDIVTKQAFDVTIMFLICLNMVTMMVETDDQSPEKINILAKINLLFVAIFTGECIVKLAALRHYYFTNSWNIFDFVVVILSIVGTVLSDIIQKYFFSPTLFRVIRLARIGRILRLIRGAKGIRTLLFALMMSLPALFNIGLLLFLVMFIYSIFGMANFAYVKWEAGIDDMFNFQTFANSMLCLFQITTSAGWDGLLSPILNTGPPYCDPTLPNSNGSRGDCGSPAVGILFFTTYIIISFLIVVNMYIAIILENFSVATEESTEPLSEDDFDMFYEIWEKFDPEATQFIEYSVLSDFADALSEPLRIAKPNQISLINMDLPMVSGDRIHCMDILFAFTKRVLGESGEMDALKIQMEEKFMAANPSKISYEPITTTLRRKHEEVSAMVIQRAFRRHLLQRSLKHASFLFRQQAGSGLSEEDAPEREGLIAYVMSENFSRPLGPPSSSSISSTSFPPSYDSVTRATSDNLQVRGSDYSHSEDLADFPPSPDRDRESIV

Where two headings read alike, the source gives them in different places.

Sequence of Nav 1.7 (Q15858 whole entry): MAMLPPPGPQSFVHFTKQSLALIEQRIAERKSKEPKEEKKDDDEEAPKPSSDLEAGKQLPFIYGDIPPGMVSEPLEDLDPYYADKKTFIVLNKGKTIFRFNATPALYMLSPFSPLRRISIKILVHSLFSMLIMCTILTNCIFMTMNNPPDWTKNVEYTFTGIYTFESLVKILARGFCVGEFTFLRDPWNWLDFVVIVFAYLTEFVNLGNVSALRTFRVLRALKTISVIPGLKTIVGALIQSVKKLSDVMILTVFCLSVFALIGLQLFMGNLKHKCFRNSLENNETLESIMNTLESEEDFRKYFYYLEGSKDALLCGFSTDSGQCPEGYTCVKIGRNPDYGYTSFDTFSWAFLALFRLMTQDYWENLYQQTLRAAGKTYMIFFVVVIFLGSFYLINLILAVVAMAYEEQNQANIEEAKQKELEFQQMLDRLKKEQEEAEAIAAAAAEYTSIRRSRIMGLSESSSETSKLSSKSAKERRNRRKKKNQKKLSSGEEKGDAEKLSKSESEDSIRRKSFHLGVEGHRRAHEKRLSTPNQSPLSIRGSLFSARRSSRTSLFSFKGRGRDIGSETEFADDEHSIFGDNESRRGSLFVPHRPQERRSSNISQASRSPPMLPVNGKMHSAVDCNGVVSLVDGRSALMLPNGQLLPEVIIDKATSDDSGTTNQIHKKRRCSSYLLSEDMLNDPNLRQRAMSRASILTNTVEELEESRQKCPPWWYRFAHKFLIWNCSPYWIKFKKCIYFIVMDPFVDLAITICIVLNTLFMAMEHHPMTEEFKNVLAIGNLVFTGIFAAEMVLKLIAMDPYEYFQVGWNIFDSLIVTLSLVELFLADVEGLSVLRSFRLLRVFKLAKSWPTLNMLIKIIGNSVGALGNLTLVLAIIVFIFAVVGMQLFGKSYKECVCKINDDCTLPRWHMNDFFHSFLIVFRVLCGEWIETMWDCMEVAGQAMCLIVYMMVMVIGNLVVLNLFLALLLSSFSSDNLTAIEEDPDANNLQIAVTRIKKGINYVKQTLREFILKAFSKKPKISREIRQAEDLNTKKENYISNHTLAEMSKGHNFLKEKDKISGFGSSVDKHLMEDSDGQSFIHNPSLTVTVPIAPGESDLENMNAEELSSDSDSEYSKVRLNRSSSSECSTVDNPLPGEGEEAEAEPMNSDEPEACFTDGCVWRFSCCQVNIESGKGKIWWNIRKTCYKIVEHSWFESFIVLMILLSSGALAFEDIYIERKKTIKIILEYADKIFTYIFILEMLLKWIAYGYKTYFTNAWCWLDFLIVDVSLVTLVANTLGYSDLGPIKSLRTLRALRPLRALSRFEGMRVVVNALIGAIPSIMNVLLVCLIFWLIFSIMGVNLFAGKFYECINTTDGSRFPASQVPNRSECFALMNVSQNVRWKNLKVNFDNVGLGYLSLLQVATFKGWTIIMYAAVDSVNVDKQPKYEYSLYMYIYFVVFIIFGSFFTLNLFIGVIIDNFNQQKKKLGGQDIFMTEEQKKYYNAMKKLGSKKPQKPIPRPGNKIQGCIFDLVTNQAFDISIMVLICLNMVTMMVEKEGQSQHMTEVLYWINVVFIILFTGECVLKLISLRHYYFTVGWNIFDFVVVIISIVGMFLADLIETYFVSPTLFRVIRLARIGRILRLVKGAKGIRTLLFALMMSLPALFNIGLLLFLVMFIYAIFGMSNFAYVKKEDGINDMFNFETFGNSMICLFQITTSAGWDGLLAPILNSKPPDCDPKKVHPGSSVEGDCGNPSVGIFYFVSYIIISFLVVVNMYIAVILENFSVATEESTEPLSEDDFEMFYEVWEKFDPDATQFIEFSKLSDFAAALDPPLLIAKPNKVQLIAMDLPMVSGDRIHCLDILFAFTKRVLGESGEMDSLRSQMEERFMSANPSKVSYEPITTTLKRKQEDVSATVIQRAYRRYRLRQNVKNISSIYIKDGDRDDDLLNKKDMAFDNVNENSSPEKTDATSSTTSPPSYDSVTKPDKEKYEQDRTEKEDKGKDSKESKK

On to `COc1cc(-c2cccc(C(F)(F)F)c2)c(F)cc1-c1nccc2cc(S(=O)(=O)Nc3ccon3)ccc12` [Example 115, 1-(2-fluoro-5-methoxy-3′-(trifluoromethyl)-4-biphenylyl)-N-3-isoxazolyl-6-isoquinolinesulfonamide], for which the IC50 at Nav 1.7 (in-vitro PX data) is 13.5 nM; on Nav 1.5 (in-vitro PX data), > 10000 nM.
On to `COc1cccc(Oc2ccc(-c3nccc4cc(S(=O)(=O)Nc5ccncn5)ccc34)c(OC)c2)c1` [Example 183, 1-(2-methoxy-4-(3-methoxyphenoxy)phenyl)-N-4-pyrimidinyl-6-isoquinolinesulfonamide], for which the IC50 against Nav 1.7 (in-vitro PX (PatchXpress) data) is 203 nM; on Nav 1.5 (in-vitro PX (PatchXpress) data) it was > 10000 nM.
`COc1cc(-c2cc(F)cnc2OC)c(C)cc1-c1ncnc2cc(S(=O)(=O)Nc3ccon3)ccc12` [Example 198, 4-(4-(5-fluoro-2-methoxy-3-pyridinyl)-2-methoxy-5-methylphenyl)-N-3-isoxazolyl-7-quinazolinesulfonamide]: the IC50 at Nav 1.7 (in-vitro PX (PatchXpress) data) is 183 nM; on Nav 1.5 (in-vitro PX (PatchXpress) data), > 10000 nM.
Consider `COc1cc(-c2cccc(F)c2)c(Cl)cc1-c1n[nH]c(=O)c2cc(S(=O)(=O)Nc3nncs3)ccc12` [Example 14, 1-(2-CHLORO-3′-FLUORO-5-METHOXY-[1,1′-BIPHENYL]-4-YL)-4-OXO-N-(1,3,4-THIADIAZOL-2-YL)-3,4-DIHYDROPHTHALAZINE-6-SULFONAMIDE], for which the IC50 on Nav 1.7 is 131 nM; at Nav 1.5 (in-vitro PX (PatchXpress) data), > 10000 nM.
Turning to `N#CCOc1cc(-c2cccc(F)c2)ccc1-c1nccc2cc(S(=O)(=O)Nc3ccncn3)ccc12` [Example 208, 1-(3-(cyanomethoxy)-3′-fluoro-4-biphenylyl)-N-4-pyrimidinyl-6-isoquinolinesulfonamide], the IC50 against Nav 1.7 (in-vitro PX) was 230 nM; on Nav 1.5 (in-vitro PX), > 30000 nM.
Take `COc1cc(Oc2cc(C)cc(C)c2)ccc1-c1nccc2cc(S(=O)(=O)Nc3ccncn3)ccc12` [Example 180, 1-(4-(3,5-dimethylphenoxy)-2-methoxyphenyl)-N-4-pyrimidinyl-6-isoquinolinesulfonamide]: the half-maximal inhibitory concentration (IC50) at Nav 1.7 (in-vitro PX (PatchXpress) data) was 520 nM; at Nav 1.5 (in-vitro PX (PatchXpress) data), > 10000 nM.
With `COc1cc(-c2cccc(F)c2)c(Cl)cc1-c1ncnc2cc(S(=O)(=O)Nc3ncon3)ccc12` [Example 26, 4-(2-CHLORO-3′-FLUORO-5-METHOXY-[1,1′-BIPHENYL]-4-YL)-N-(1,2,4-OXADIAZOL-3-YL)QUINAZOLINE-7-SULFONAMIDE], the IC50 against Nav 1.7 (in-vitro PX) was 85 nM; on Nav 1.5 (in-vitro PX) it was > 10000 nM.
`COc1cc(Cl)c(-c2cccc(F)c2)cc1-c1nccc2cc(S(=O)(=O)Nc3ncccn3)ccc12` [Example 122, 1-(6-chloro-3′-fluoro-4-methoxy-3-biphenylyl)-N-2-pyrimidinyl-6-isoquinolinesulfonamide]: the IC50 is 112 nM against Nav 1.7 (in-vitro PX data) and > 10000 nM at Nav 1.5 (in-vitro PX data).
Regarding `N#CCOc1cc(-c2cccc(F)c2)ccc1-c1nccc2cc(S(=O)(=O)Nc3nncs3)ccc12` [Example 238, 1-(3-(cyanomethoxy)-3′-fluoro-4-biphenylyl)-N-1,3,4-thiadiazol-2-yl-6-isoquinolinesulfonamide], the IC50 is 144 nM against Nav 1.7 (in-vitro PX) and > 10000 nM at Nav 1.5 (in-vitro PX).
In the case of `COc1cc(-c2cc(F)cc(F)c2)c(Cl)cc1-c1nn(C)c(=O)c2cc(S(=O)(=O)Nc3nncs3)ccc12` [Example 235, 1-(2-chloro-3′,5′-difluoro-5-methoxy-4-biphenylyl)-3-methyl-4-oxo-N-1,3,4-thiadiazol-2-yl-3,4-dihydro-6-phthalazinesulfonamide], the concentration for half-maximal inhibition (IC50) at Nav 1.7 (in-vitro PX) was 47.1 nM; at Nav 1.5 (in-vitro PX) it was > 10000 nM.
In the case of `COc1cc(-c2cccc(F)c2)c(C#N)cc1-c1ncnc2cc(S(=O)(=O)Nc3nncs3)ccc12` [Example 241, 4-(2-cyano-3′-fluoro-5-methoxy-4-biphenylyl)-N-1,3,4-thiadiazol-2-yl-7-quinazolinesulfonamide], the figures for the IC50 against Nav 1.7 (in-vitro PX) and on Nav 1.5 (in-vitro PX) were 69.1 nM and > 10000 nM, respectively.
In the case of `COc1cc(Oc2cc(C)cc(F)c2)ccc1-c1nccc2cc(S(=O)(=O)Nc3ccncn3)ccc12` [Example 179, 1-(4-(3-fluoro-5-methylphenoxy)-2-methoxyphenyl)-N-4-pyrimidinyl-6-isoquinolinesulfonamide], the IC50 against Nav 1.7 (in-vitro PX (PatchXpress) data) is 77 nM; at Nav 1.5 (in-vitro PX (PatchXpress) data) it was > 10000 nM.
The like results for `COc1cc(Oc2ccc(C)c(F)c2)ccc1-c1nccc2cc(S(=O)(=O)Nc3nncs3)ccc12` [Example 194, 1-(4-(3-fluoro-4-methylphenoxy)-2-methoxyphenyl)-N-1,3,4-thiadiazol-2-yl-6-isoquinolinesulfonamide] were, in that order, 133 nM and > 10000 nM.
`COc1cc(Oc2ccccc2C)ccc1-c1nccc2cc(S(=O)(=O)Nc3ccncn3)ccc12` [Example 170, 1-(2-methoxy-4-(2-methylphenoxy)phenyl)-N-4-pyrimidinyl-6-isoquinolinesulfonamide]: the IC50 on Nav 1.7 (in-vitro Nav 1.7 PX data) is 171 nM; at Nav 1.5 (in-vitro Nav 1.5 PX data), > 10000 nM.
For `COc1cc(-c2cccc(C(F)(F)F)c2)c(C#N)cc1-c1nccc2cc(S(=O)(=O)Nc3ccncn3)ccc12` [Example 184, 1-(2-cyano-5-methoxy-3′-(trifluoromethyl)-4-biphenylyl)-N-4-pyrimidinyl-6-isoquinolinesulfonamide], the IC50 on Nav 1.7 (in-vitro PX (PatchXpress) data) is 36.3 nM; on Nav 1.5 (in-vitro PX (PatchXpress) data) it was > 30000 nM.
As to `COc1nc(NC2CCCCC2)ccc1-c1nccc2cc(S(=O)(=O)Nc3ccncn3)ccc12` [Example 73, 1-(6-(cyclohexylamino)-2-methoxy-3-pyridinyl)-N-4-pyrimidinyl-6-isoquinolinesulfonamide], the concentration for half-maximal inhibition (IC50) against Nav 1.7 (PatchXpress (PX), in vitro) was 436 nM; on Nav 1.5 (PatchXpress (PX), in vitro) it was > 10000 nM.
As for `COc1cc(-c2cc(F)cc(Cl)c2)c(C#N)cc1-c1nccc2cc(S(=O)(=O)Nc3ccon3)ccc12` [Example 86, 1-(3′-chloro-2-cyano-5′-fluoro-5-methoxy-4-biphenylyl)-N-3-isoxazolyl-6-isoquinolinesulfonamide], the IC50 against Nav 1.7 (PatchXpress (PX), in vitro) is 24.4 nM; at Nav 1.5 (PatchXpress (PX), in vitro) it was > 10000 nM.
Take `COc1cc(-c2cc(F)cc(F)c2)c(C#N)cc1-c1ncnc2cc(S(=O)(=O)Nc3nncs3)ccc12` [Example 216, 4-(2-cyano-3′,5′-difluoro-5-methoxy-4-biphenylyl)-N-1,3,4-thiadiazol-2-yl-7-quinazolinesulfonamide]: the IC50 is 45.6 nM on Nav 1.7 (in-vitro PX) and > 10000 nM at Nav 1.5 (in-vitro PX).
Regarding `COc1cc(-c2cccc(F)c2)c(Cl)cc1-c1nncc2cc(S(=O)(=O)Nc3ncccn3)ccc12` [Example 113, 1-(2-chloro-3′-fluoro-5-methoxy-4-biphenylyl)-N-2-pyrimidinyl-6-phthalazinesulfonamide], the IC50 against Nav 1.7 (in-vitro PX data) was 95 nM; at Nav 1.5 (in-vitro PX data), > 10000 nM.
As for “1-(2-chloro-3′-fluoro-5-methoxy-4-biphenylyl)-N-2-pyrimidinyl-6-isoquinolinesulfonamide [Example 108]”, the IC50 at Nav 1.7 (in-vitro PX data) is 86.2 nM; at Nav 1.5 (in-vitro PX data) it was > 10000 nM.
Consider `COc1nc(OCC2CCC(F)(F)CC2)ccc1-c1nccc2cc(S(=O)(=O)Nc3ccncn3)ccc12` [Example 69, 1-(6-((4,4-difluorocyclohexyl)methoxy)-2-methoxy-3-pyridinyl)-N-4-pyrimidinyl-6-isoquinolinesulfonamide], for which the IC50 is 459 nM on Nav 1.7 (PatchXpress (PX), in vitro) and > 30000 nM on Nav 1.5 (PatchXpress (PX), in vitro).
On to `COc1cc(-c2ccccc2)ccc1-c1nccc2cc(S(=O)(=O)Nc3ccon3)ccc12` [Example 49, N-(ISOXAZOL-3-YL)-1-(3-METHOXY-[1,1′-BIPHENYL]-4-YL)ISOQUINOLINE-6-SULFONAMIDE], for which the IC50 against Nav 1.7 (PatchXpress (PX), in vitro) was 311 nM; on Nav 1.5 (PatchXpress (PX), in vitro), > 10000 nM.
